Measured values as given in patent US9174916B2, “Compounds and uses thereof for treating inflammation and modulating immune responses” (PURAPHARM COMPANY LIMITED, priority 2009, dated 2015).

How the values were obtained:
Assay type in all cases: cell-based, human
TNF-α = experiment: LPS-induced TNF-α production in primary blood macrophages, ELISA of culture supernatants; details: for inhibition of LPS-induced TNF-α protein production: 140 μM B22EES1-8-3 for 24 hr, mean±S.D. of 6 experiments
Description: FIGS. 5A-5B show inhibition of LPS-induced TNF-α production by B22EES1-8-3 and dexamethasone. PBMac were incubated with (A) 140 μM B22EES1-8-3 or (B) 1.3 or 5.1 μM dexamethasone (Dex) for 24 hr prior to the addition of 1 ng/mL and 10 ng/mL LPS for another 24 hr. The culture supernatants were collected and assayed for TNF-α by ELISA. The results shown were the mean values±standard derivation (S.D.) of 6 independent experiments, with cells obtained from different donors. * P<0.05, compared with the corresponding control.
Human peripheral blood monocytic cells (PBMC) were isolated from the buffy coat of healthy donor blood supplied by Hong Kong Red Cross by Ficoll-Paque (Amersham Pharmacia Biotech, Piscataway, N.J.) density gradient centrifugation as described in our previous reports^14,15,34. In brief, the buffy coat was spun at 3000 rotations per min (rpm) for 15 min to separate the blood cells and the plasma. The heat inactivated serum was filtered for future use.
The adherent monocytic cells were detached and seeded onto tissue culture plates and incubated for another 7-14 days in order to differentiate the primary blood monocytic cells to primary blood macrophages (PBMac).
Culture supernatants of the LPS-treated PBMac, with or without B22EES1-8-3 pretreatment, were collected at different time intervals and stored at −70° C. The levels of the secreted TNF-α were measured by ELISA kits specific for the cytokine (R&D system, Minneapolis, Minn.).
To confirm the activities of B8-3 in suppressing TNF-α production, B8-3 was incubated with PBMac for 24 hr prior the addition of LPS at concentrations of 1 ng/mL and 10 ng/mL for 24 hr. The culture supernatants were collected and measured by ELISA for the level of secreted TNF-α.
To further compare the efficiency of B8-3 with existing drugs, dexamethasone, a potent immunosuppressive corticosteroid, was used as a prototype. PBMac were treated with dexamethasone for 24 hr prior to the addition of LPS at concentrations of 1 ng/mL and 10 ng/mL for 24 hr.

p38 MAPK = experiment: LPS-induced phosphorylation of p38 MAPK in PBMac, Western blot; details: B22EES1-8-3 140 μM for 24 h, then 10 ng/mL LPS for 15 min
Description: (§1) FIGS. 6A-6C show the effects of B22EES1-8-3 on LPS-induced phosphorylation (phospho-) of ERK1/2 and p38 MAP kinases, and nuclear translocation of NF-κB p65. PBMac were incubated with B22EES1-8-3 (140 μM) for 24 h prior to the addition of 10 ng/mL LPS for an additional 15 min. Cytoplasmic (A, B) and nuclear (C) proteins were harvested for Western Blotting: (A) Cytoplasmic proteins: phospho-ERK1/2 and total ERK1/2. (B) Cytoplasmic proteins: phospho-p38 and total p38 kinase. (C) Nuclear proteins: upper panel, NF-κB p65 and lamin B; lower panel, the intensity of corresponding lanes in the gel photograph of NF-κB p65 was shown. The results shown are representative of at least three independent experiments, with cells obtained from different donors. * P<0.05, compared with the corresponding control. […]
(§2) Whole cell lysate (20 μg) or nuclear protein (2 μg) were separated by sodium dodecyl sulfate polyacrylamide gel electrophoresis (SDS-PAGE) and transferred to nitrocellulose membranes for probing overnight with the respective antibodies specific for the phosphorylated or total form of ERK1/2 and p38 MAPK (Cell Signaling Technology, Beverly, Mass.), NF-κB p65 protein and lamin B (Santa Cruz Biotechnology, Santa Cruz, Calif.). […] In order to quantify the results from the Western blots, the gels were scanned and the intensity of the bands was analyzed by a computer program Quantity One from BioRad. […]

ERK1/2 = experiment: LPS-induced phosphorylation of ERK1/2 in PBMac, Western blot; details: B22EES1-8-3 140 μM for 24 h, then 10 ng/mL LPS for 15 min
Description: as §1, §2

NF-κB p65 = experiment: LPS-induced nuclear translocation of NF-κB p65 in PBMac, Western blot of nuclear proteins; details: B22EES1-8-3 140 μM for 24 h, then 10 ng/mL LPS for 15 min, nuclear fraction
Description: as §1, §2

| SMILES | inhibition at 1.3 µM (TNF-α; Homo sapiens, Macrophage, PBMac, dexamethasone 1.3 μM for 24 hr, then LPS (1 and 10 ng/mL used) for 24 hr) [%] | inhibition at 5.1 µM (TNF-α; Homo sapiens, Macrophage, PBMac, dexamethasone 5.1 μM for 24 hr, then LPS (1 and 10 ng/mL used) for 24 hr) [%] | effect on LPS-induced phosphorylation of p38 MAPK (p38 MAPK) | inhibition of LPS-induced TNF-α protein production (TNF-α; PBMac, then LPS 1 ng/mL for 24 hr) [%] | inhibition of LPS-induced TNF-α protein production (TNF-α; PBMac, then LPS 10 ng/mL for 24 hr) [%] | amelioration of LPS-upregulated TNF-α production (TNF-α; summary statement, FIG. 5A, LPS concentration not stated) | effect on LPS-induced phosphorylation of ERK1/2 (ERK1/2) | effect on nuclear translocation of NF-κB p65 (NF-κB p65) |
| --- | --- | --- | --- | --- | --- | --- | --- | --- |
| C[C@@H]1C[C@H]2[C@@H]3CCC4=CC(=O)C=C[C@]4(C)[C@@]3(F)[C@@H](O)C[C@]2(C)[C@@]1(O)C(=O)CO [dexamethasone, reference compound] | 32 ± 7.5 | 25 ± 6.3 |  |  |  |  |  |  |
| COc1ccc(/C=C/C(=O)OCC(=O)Cc2ccc(O)c(O)c2)cc1O [B8-3] |  |  | not p38 MAPK induced by LPS was suppressed | 47±19 | 58±30 | over 50% | suppressed | reduced the amount of p65NF-kB in the nuclear fraction |
